One experiment has as its target T1, C. albicans Aox2 (rAox2) (Candida albicans, UniProt Q9UV71).
T1 sequence (Q9UV71 1-365): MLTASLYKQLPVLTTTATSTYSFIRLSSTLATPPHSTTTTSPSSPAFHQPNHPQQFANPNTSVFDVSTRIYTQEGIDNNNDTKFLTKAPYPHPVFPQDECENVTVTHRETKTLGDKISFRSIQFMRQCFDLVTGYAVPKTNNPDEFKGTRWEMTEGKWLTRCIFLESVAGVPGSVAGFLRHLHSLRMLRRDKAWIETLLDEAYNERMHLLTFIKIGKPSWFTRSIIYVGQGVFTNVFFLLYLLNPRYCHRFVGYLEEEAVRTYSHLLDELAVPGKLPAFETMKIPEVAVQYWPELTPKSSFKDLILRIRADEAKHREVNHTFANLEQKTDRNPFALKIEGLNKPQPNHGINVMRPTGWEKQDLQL
Description: NADH oxidation at […] nm, E. coli membranes. The class given is biochemical.

The target in a further experiment is T2, cytochrome bc1 complex (Candida albicans, UniProt A0A1D8PJX3+P0C8L0).
T2 construct: gene COB; native multi-subunit complex III; preparation and assay not given; with Cytochrome c1, heme protein, mitochondrial
T2 sequence (P0C8L0 1-387): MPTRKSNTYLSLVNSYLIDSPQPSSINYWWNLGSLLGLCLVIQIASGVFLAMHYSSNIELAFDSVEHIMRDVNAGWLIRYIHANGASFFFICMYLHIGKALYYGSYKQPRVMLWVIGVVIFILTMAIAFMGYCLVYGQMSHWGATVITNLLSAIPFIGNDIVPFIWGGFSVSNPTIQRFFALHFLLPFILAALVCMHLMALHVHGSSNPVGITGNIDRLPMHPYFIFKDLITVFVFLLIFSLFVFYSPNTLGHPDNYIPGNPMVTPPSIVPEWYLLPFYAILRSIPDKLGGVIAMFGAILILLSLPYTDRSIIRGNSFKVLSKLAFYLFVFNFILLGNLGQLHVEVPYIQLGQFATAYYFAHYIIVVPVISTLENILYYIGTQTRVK
T2 sequence (A0A1D8PJX3 30-213): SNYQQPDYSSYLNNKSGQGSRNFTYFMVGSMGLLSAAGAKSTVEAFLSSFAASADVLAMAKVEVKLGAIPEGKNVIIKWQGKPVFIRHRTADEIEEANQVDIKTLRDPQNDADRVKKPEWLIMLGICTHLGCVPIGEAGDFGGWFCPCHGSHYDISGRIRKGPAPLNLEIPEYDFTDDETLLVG
T2 sequence (A0A1D8PHA3 43-288 partner): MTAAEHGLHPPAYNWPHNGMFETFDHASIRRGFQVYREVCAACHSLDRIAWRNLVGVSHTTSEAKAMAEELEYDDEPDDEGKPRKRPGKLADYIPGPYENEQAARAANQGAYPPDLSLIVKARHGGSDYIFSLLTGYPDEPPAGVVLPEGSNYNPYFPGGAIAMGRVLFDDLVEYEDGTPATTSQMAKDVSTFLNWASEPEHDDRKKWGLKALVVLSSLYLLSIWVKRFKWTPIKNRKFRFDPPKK
Kind of experiment: cytochrome bc1 activity, dose response (assay not described). The class given is cell-based. From the text:
cytochrome bc1 activity, dose response (assay not described) on cytochrome bc1 complex

Like-named read-outs stand apart in the source and are kept apart here.

As a reminder, the IC50 is the concentration that inhibits the measured activity by half. Read a high IC50 as weaker potency in that assay.

Turning to `Cc1c(Br)c(O)c(CCCCCCCCCCCC[P+](c2ccccc2)(c2ccccc2)c2ccccc2)c(O)c1C=O` [ALTOX094, (12-(3-Bromo-5-formyl-2,6-dihydroxy-4-methylphenyl)dodecyl)triphenylphosphonium bromide], the IC50 came out at 15 ± 1 µM at C. albicans Aox2 (rAox2) (NADH, 65 mM MOPS pH 7.5, 1 mM KCN, 10 mM GMP, 10 min preincubation) and 9.1 ± 1.2 µM against cytochrome bc1 complex.

As to `Cc1c(Br)c(O)c(CCCCCCCC[P+](c2ccccc2)(c2ccccc2)c2ccccc2)c(O)c1C=O` [ALTOX102, (8-(3-Bromo-5-formyl-2,6-dihydroxy-4-methylphenyl)octyl)triphenylphosphonium bromide], the half-inhibitory concentration (IC50) on C. albicans Aox2 (rAox2) came out at 11.1 ± 1 µM; on cytochrome bc1 complex it was 5.8 ± 1.4 µM.

Consider `CC(C)=CCC/C(C)=C/Cc1c(O)c(Cl)c(C)c(C=O)c1O` [Colletochlorin B], for which the figures for the IC50 on C. albicans Aox2 (rAox2) and on cytochrome bc1 complex were 0.0073 ± 0.0024 µM and 1.1 ± 0.1 µM, respectively.

As to `CC(C)=CCC/C(C)=C/Cc1c(O)c(Br)c(C)c(C=O)c1O` [ISSF31, (E)-3-Bromo-5-(3,7-dimethylocta-2,6-dien-1-yl)-4,6-dihydroxy-2-methylbenzaldehyde], the figures for the IC50 at C. albicans Aox2 (rAox2) and against cytochrome bc1 complex were 0.0211 ± 0.008 µM and 1.2 ± 0.6 µM, respectively.

Source of the values: article PMC11832467, “Novel mitochondrial-targeted alkyl chains act as fungal specific inhibitors of C. neoformans” (Frontiers in Microbiology, 2025).
